Literature values as cited in patent publication US12178851B2, “Methods for administering STING agonists” (GlaxoSmithKline Intellectual Property Development Limited, priority 2017, dated 2024).

Experiments:
[1] = test system: CT26 syngeneic model; settings: 20 daily i.v. doses of 20 mg/kg, dosed 4 h after injection of the tumor cells
[2] = test system: CT26 syngeneic model

SMILES | efficacy in CT26 model [1] | maximally tolerated i.p. dose ([2]; mouse, in vivo, ip) [µmol/kg] | cytokine levels in tumor and blood ([2]; once at 500 ug/mouse i.p.) | tumor growth inhibition ([2]; once at 500 ug/mouse i.p., established tumors)
Nc1nc2c(ncn2[C@@H]2O[C@@H]3COP(=O)(O)O[C@H]4[C@@H](O)[C@H](n5cnc6c(N)ncnc65)O[C@@H]4COP(=O)(O)O[C@@H]2[C@@H]3O)c(=O)[nH]1 [2′3′-cGAMP] | some efficacy |  |  | 
Cc1ccc2c(=O)c3cccc(CC(=O)O)c3oc2c1C [DMXAA, 5,6-Dimethylxanthenone-4-Acetic Acid] |  | ~99 | high cytokine levels both in the tumor and the blood | potently inhibits tumor growth, leading to cures in mice
